# Square brackets hold non-standard residues; d marks the D form. Peptide text beside a SMILES is read from it. * marks the point of attachment. Nle = CCCC[C@H](N)C(=O)O; Boc = CC(C)(C)OC(=O)*
# Target: T1, Cholecystokinin receptor type A (Cavia porcellus, UniProt Q63931)
# T1 sequence (Q63931 whole entry): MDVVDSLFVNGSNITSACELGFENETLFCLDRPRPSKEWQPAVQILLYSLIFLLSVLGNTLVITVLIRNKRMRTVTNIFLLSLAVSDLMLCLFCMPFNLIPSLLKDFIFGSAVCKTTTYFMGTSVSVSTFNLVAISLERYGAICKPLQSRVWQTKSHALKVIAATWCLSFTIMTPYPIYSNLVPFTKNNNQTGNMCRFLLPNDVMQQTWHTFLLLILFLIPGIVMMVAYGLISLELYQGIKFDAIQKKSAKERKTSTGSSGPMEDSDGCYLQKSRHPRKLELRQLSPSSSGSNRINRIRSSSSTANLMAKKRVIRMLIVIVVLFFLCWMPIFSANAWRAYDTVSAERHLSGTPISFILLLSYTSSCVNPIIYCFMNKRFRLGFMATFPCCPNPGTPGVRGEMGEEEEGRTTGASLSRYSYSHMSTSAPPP
# Assay: Compound was tested for its inhibitory activity in pancreatic cholecystokinin type A receptor in guinea pig
row,IC50,Structure (SMILES)
1,2.7 µM,CCC[C@@H]1CCN(C(=O)[C@H](Cc2c[nH]c3ccccc23)NC(=O)OC(C)(C)C)[C@@H]1C(=O)N[C@@H](CC(=O)O)C(=O)N[C@@H](Cc1ccccc1)C(N)=O
2,4 µM,CCCC[C@H](NC(=O)[C@H](Cc1c[nH]c2ccccc12)NC(=O)OC(C)(C)C)C(=O)N[C@@H](CC(=O)O)C(=O)N[C@@H](Cc1ccccc1)C(N)=O (Boc-W[Nle]DF-NH2)
3,2.1 µM,CC(C)(C)OC(=O)N[C@@H](Cc1c[nH]c2ccccc12)C(=O)N1CCC[C@H]1C(=O)N[C@@H](CC(=O)O)C(=O)N[C@@H](Cc1ccccc1)C(N)=O (Boc-WPDF-NH2)
4,10.3 µM,C[C@H](NC(=O)[C@H](Cc1c[nH]c2ccccc12)NC(=O)OC(C)(C)C)C(=O)N[C@@H](CC(=O)O)C(=O)N[C@@H](Cc1ccccc1)C(N)=O (Boc-WADF-NH2)

# — ChEMBL document CHEMBL1125749, “trans-3-n-propyl-L-proline is a highly favorable, conformationally restricted replacement for methionine in the C-terminal tetrapeptide of cholecystokinin. Stereoselective synthesis of 3-allyl- and 3-n-propyl-L-proline derivatives from 4-hydroxy-L-proline” (J Med Chem, 1991)
